Experimental data published in patent US11884675B2, “Heterocyclic compounds as triggering receptor expressed on myeloid cells 2 agonists and methods of use” (AMGEN INC., priority 2020, dated 2024).

What follows are molecules tested against hTREM2 (Homo sapiens, UniProt Q9NZC2) (assay: TREM2 agonist potency by Syk phosphorylation (AlphaLisa) in HEK293T-hTREM2 cells, used for Examples 306-429). Conditions: HEK293 Cells.
Type: cell-based
Parameters: expressed in transfected cells; host or cells: HEK293T (HEK293T-hTREM2 cells)
Method: In vitro Measurement of Triggering Receptor Expressed on Myeloid Cells 2 activity using cellular phosphorylation of Spleen Tyrosine Kinase (“Syk”) Assays used for Examples 306-429
Measurement of TREM2 agonist potency was done using a HEK cell line expressing human TREM2 and DAP12 (HEK293T-hTREM2 cells). Binding of small molecules to, and activation of, TREM2 increases the phosphorylation of Syk. The resultant levels of Syk phosphorylation were measured using a commercial AlphaLisa reagent kit. To perform the assay, HEK-hTREM2 cells were plated at 14,000 cells per well in a 384 well plate, in 25 μL, of complete growth media and incubated at 37° C., 5% CO2 for 20-24 hours. Prior to the assay, test compounds were diluted in the 384 well plates in assay buffer and allowed to equilibrate for 30 minutes. Growth media was removed from cell plates by inversion on blotting paper, and 25 μL of test compounds in assay buffer was added to cells. Cells were incubated for 45 minutes at room temperature. After 45 minutes, assay buffer was removed and 10 μL of lysis buffer was added. Plates were shaken for 20 minutes at 350 RPM at room temperature. After complete lysis, AlphaLisa reagents were added to the lysate, and fluourescence intensity was measured using a Perkin Elmer Envision plate reader. Intensities were used to generate a standard curve, and % activation was calculated. Curve fitting was performed using Prism v9 software, log(agonist) vs response-variable slope (four parameters), and EC50s were calculated from the curve fit.
The results presented in Table 20 have been generated with the in vitro assay described above for Examples 306-429. This assay may be used to test any of the compounds described herein to assess and characterize a compound's ability to act as an agonist of TREM2.

Chain of hTREM2 (Q9NZC2 19-230): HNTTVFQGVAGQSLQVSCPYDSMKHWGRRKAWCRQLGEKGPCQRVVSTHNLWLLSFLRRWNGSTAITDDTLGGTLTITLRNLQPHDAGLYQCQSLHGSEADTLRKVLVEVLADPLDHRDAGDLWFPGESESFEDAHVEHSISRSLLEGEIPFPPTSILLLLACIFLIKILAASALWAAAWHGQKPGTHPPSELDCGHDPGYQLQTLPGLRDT
Chain of hTREM2 (O43914 22-113 partner): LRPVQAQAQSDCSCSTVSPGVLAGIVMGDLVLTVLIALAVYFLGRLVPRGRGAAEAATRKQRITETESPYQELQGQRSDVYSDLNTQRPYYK

Row | Compound | EC50 [nM]
1 | Cc1nc2nc([C@@H]3CCO[C@@H](c4cnn(C5CC5)c4)C3)nc(-c3ccc(C(F)(F)F)cc3F)c2nc1C [Example 412, 2-((2R,4R)-2-(1-cyclopropyl-1H-pyrazol-4-yl)tetrahydro-2H-pyran-4-yl)-4-(2-fluoro-4-(trifluoromethyl)phenyl)-6,7-dimethylpteridine] | 50 to 500
2 | Cc1cnc2c(C34CC(C(F)(F)F)(C3)C4)nc(N3C[C@H](C)O[C@@H](c4cnn(C5CC5)c4)C3)nc2n1 [Example 404, (2S,6S)-2-(1-cyclopropyl-1H-pyrazol-4-yl)-6-methyl-4-(7-methyl-4-(3-(trifluoromethyl)bicyclo[1.1.1]pentan-1-yl)pteridin-2-yl)morpholine] | ≤ 50
3 | Cc1cc([C@@H]2C[C@H](c3nc(-c4cc(F)c(Cl)c(F)c4)c4nc(C)c(C)nc4n3)CCO2)ccn1 (racemic) [Example 389, 4-(4-chloro-3,5-difluoro-phenyl)-6,7-dimethyl-2-[2-(2-methyl-4-pyridyl)tetrahydropyran-4-yl]pteridine] | ≤ 50
4 | Cc1cnc2c(-c3ccc(F)cc3F)nc(N3C[C@@H](C)O[C@@H](c4cnn(C5CC5)c4)C3)nc2n1 (racemic) [Example 371, 2-(1-cyclopropyl-1H-pyrazol-4-yl)-4-(4-(2,4-difluorophenyl)-7-methylpteridin-2-yl)-6-methylmorpholine] | ≤ 50
5 | Cc1cnc2c(-c3ccc(F)cc3F)nc(N3C[C@H](C)O[C@@H](c4cnn(C5CC5)c4)C3)cc2n1 (racemic) [Example 361, 2-(1-cyclopropyl-1H-pyrazol-4-yl)-4-(5-(2,4-difluorophenyl)-2-methylpyrido[3,4-b]pyrazin-7-yl)-6-methylmorpholine] | 50 to 500
6 | Cc1nc2nc(C3CCOC(c4cnn(C5CC5)c4)C3)cc(-c3ccc(Cl)cc3F)c2nc1C (stereo not drawn) [Example 402, 8-(4-chloro-2-fluorophenyl)-6-(2-(1-cyclopropyl-1H-pyrazol-4-yl)tetrahydro-2H-pyran-4-yl)-2,3-dimethylpyrido[2,3-b]pyrazine] | ≤ 50
7 | Cc1cnc2c(-c3ccc(F)cc3F)nc([C@@H]3CCO[C@@H](c4cnn(C5CC5)c4)C3)nc2n1 [Example 338, 2-((2R,4R)-2-(1-cyclopropyl-1H-pyrazol-4-yl)tetrahydro-2H-pyran-4-yl)-4-(2,4-difluorophenyl)-7-methylpteridine] | 500 to 3000
8 | Cc1nc2cc([C@H]3CCO[C@@H](c4cnn(C5CC5)c4)C3)nc(-c3ccc(F)cc3F)c2nc1C (racemic) [Example 393, 7-[2-(1-cyclopropylpyrazol-4-yl)tetrahydropyran-4-yl]-5-(2,4-difluorophenyl)-2,3-dimethyl-pyrido[3,4-b]pyrazine] | 50 to 500
9 | Cc1cc([C@@H]2CN(c3nc(-c4ccc(Cl)c(F)c4F)c4nc(C)c(C)nc4n3)CCO2)ccn1 [Example 364, (R)-4-(4-(4-chloro-2,3-difluorophenyl)-6,7-dimethylpteridin-2-yl)-2-(2-methylpyridin-4-yl)morpholine] | ≤ 50
10 | Cc1cnc2c(-c3ccc(F)cc3F)nc([C@H]3C[C@@H](C)O[C@@H](c4cnn(C5CC5)c4)C3)cc2n1 [Example 417, 7-((2R,4S,6R)-2-(1-cyclopropyl-1H-pyrazol-4-yl)-6-methyltetrahydro-2H-pyran-4-yl)-5-(2,4-difluorophenyl)-2-methylpyrido[3,4-b]pyrazine] | 50 to 500
11 | Cc1cnc2c(C34CC(C(F)(F)F)(C3)C4)nc(N3C[C@@H](C)O[C@H](c4cnn(C5CC5)c4)C3)nc2n1 [Example 405, (2R,6R)-2-(1-cyclopropyl-1H-pyrazol-4-yl)-6-methyl-4-(7-methyl-4-(3-(trifluoromethyl)bicyclo[1.1.1]pentan-1-yl)pteridin-2-yl)morpholine] | 50 to 500
12 | Cc1cnc2c(-c3ccc(Cl)cc3F)nc([C@@H]3CCO[C@@H](c4cnn(C5CC5)c4)C3)nc2n1 [Example 350, 4-(4-chloro-2-fluorophenyl)-2-((2R,4R)-2-(1-cyclopropyl-1H-pyrazol-4-yl)tetrahydro-2H-pyran-4-yl)-7-methylpteridine] | 500 to 3000
13 | Cc1nc2cc(N3CCOC(c4cnn(C5CC5)c4)C3)nc(-c3ccc(C(F)(F)F)nc3)c2nc1C (stereo not drawn) [Example 349, 2-(1-cyclopropyl-1H-pyrazol-4-yl)-4-(2,3-dimethyl-5-(6-(trifluoromethyl)pyridin-3-yl)pyrido[3,4-b]pyrazin-7-yl)morpholine] | ≤ 50
14 | Cc1cc([C@H]2CN(c3nc(-c4cc(F)c(Cl)cc4F)c4nc(C)c(C)nc4n3)CCO2)ccn1 [Example 387, (2S)-4-[4-(4-chloro-2,5-difluoro-phenyl)-6,7-dimethyl-pteridin-2-yl]-2-(2-methyl-4-pyridyl)morpholine] | ≤ 50
15 | Cc1cc(C2CN(c3cc4nc(C)c(C)cc4c(-c4ccc(F)cc4F)n3)CCO2)ccn1 (stereo not drawn) [Example 346, 4-(5-(2,4-difluorophenyl)-2,3-dimethyl-1,6-naphthyridin-7-yl)-2-(2-methylpyridin-4-yl)morpholine] | ≤ 50
16 | Cc1cc(C2CC(c3nc(-c4ccc(C(F)(F)F)nc4)c4ccc(C)nc4n3)CCO2)ccn1 (stereo not drawn) [Example 324, 7-methyl-2-(2-(2-methylpyridin-4-yl)tetrahydro-2H-pyran-4-yl)-4-(6-(trifluoromethyl)pyridin-3-yl)pyrido[2,3-d]pyrimidine] | 50 to 500
17 | Cc1cc([C@H]2C[C@@H](c3nc(-c4ccc(Cl)c(F)c4F)c4nc(C)c(C)nc4n3)CCO2)ccn1 [Example 397, 4-(4-chloro-2,3-difluorophenyl)-6,7-dimethyl-2-((2R,4S)-2-(2-methylpyridin-4-yl)tetrahydro-2H-pyran-4-yl)pteridine] | ≤ 50
18 | Cc1nc2cc(N3C[C@@H](C)O[C@@H](c4cnn(C5CC5)c4)C3)nc(C34CC(C(F)(F)F)(C3)C4)c2nc1C (racemic) [Example 379, 2-(1-cyclopropylpyrazol-4-yl)-4-[2,3-dimethyl-5-[3-(trifluoromethyl)-1-bicyclo[1.1.1]pentanyl]pyrido[3,4-b]pyrazin-7-yl]-6-methyl-morpholine] | 50 to 500
19 | Cc1nc2nc(N3CC(C)OC(c4cnn(C5CC5)c4)C3)nc(C34CC(C(F)(F)F)(C3)C4)c2nc1C (stereo not drawn) [Example 356, 2-(1-cyclopropyl-1H-pyrazol-4-yl)-4-(6,7-dimethyl-4-(3-(trifluoromethyl)bicyclo[1.1.1]pentan-1-yl)pteridin-2-yl)-6-methylmorpholine] | ≤ 50
20 | Cc1cc(C2CN(c3nc(-c4ccc(Cl)c(F)c4F)c4nc(C)c(C)nc4n3)CCO2)ccn1 (stereo not drawn) [Example 337, 4-(4-(4-chloro-2,3-difluorophenyl)-6,7-dimethylpteridin-2-yl)-2-(2-methylpyridin-4-yl)morpholine] | ≤ 50
21 | Cc1cc([C@H]2C[C@@H](c3cc4nc(C)cnc4c(-c4ccc(F)cc4F)n3)CCO2)ccn1 (racemic) [Example 307, 5-(2,4-difluorophenyl)-2-methyl-7-(2-(2-methylpyridin-4-yl)tetrahydro-2H-pyran-4-yl)pyrido[3,4-b]pyrazine] | 50 to 500
22 | Cc1nc2nc(N3C[C@@H](c4cnn(C5CC5)c4)O[C@@H](C)C3)nc(-c3ccc(Cl)cc3F)c2nc1C [Example 424, (2R,6S)-4-(4-(4-chloro-2-fluorophenyl)-6,7-dimethylpteridin-2-yl)-2-(1-cyclopropyl-1H-pyrazol-4-yl)-6-methylmorpholine] | ≤ 50
23 | Cc1cnc2c(-c3ccc(F)cc3F)nc(N3C[C@@H](C)O[C@@H](c4cnn(C5CC5)c4)C3)nc2n1 [Example 420, (2S,6R)-2-(1-cyclopropyl-1H-pyrazol-4-yl)-4-(4-(2,4-difluorophenyl)-7-methylpteridin-2-yl)-6-methylmorpholine] | ≤ 50
24 | Cc1nc2nc([C@@H]3CCO[C@@H](c4cnn(C5CC5)c4)C3)nc(-c3ccc(F)cc3Cl)c2nc1C [Example 321, 4-(2-chloro-4-fluorophenyl)-2-((2R,4R)-2-(1-cyclopropyl-1H-pyrazol-4-yl)tetrahydro-2H-pyran-4-yl)-6,7-dimethylpteridine] | 50 to 500
25 | Cc1nc2cc(N3C[C@@H](C)O[C@@H](c4cnn(C5CC5)c4)C3)nc(-c3ccc(F)cc3F)c2nc1C (racemic) [Example 358, 2-(1-cyclopropyl-1H-pyrazol-4-yl)-4-(5-(2,4-difluorophenyl)-2,3-dimethylpyrido[3,4-b]pyrazin-7-yl)-6-methylmorpholine] | ≤ 50
26 | Cc1cc([C@H]2C[C@@H](c3cc4nc(C)c(C)nc4c(-c4ccc(F)cc4F)n3)CCO2)ccn1 [Example 317, 5-(2,4-difluorophenyl)-2,3-dimethyl-7-[(2R,4S)-2-(2-methyl-4-pyridyl)tetrahydropyran-4-yl]pyrido[3,4-b]pyrazine] | ≤ 50
27 | Cc1cnc2c(-c3ccc(Cl)cc3F)nc(N3C[C@H](C)O[C@@H](c4cnn(C5CC5)c4)C3)nc2n1 (racemic) [Example 374, 4-(4-(4-chloro-2-fluorophenyl)-7-methylpteridin-2-yl)-2-(1-cyclopropyl-1H-pyrazol-4-yl)-6-methylmorpholine] | ≤ 50
